In patent US7955425B2, “Ink composition for ink jet recording” (Seiko Epson Corporation, priority 2008, dated 2011):

Assays:
[1] = Surface tension of aqueous solution; assay type: physicochemical
[2] = Evaluation of solubility of poorly water-soluble alkane diol; assay type: physicochemical; conditions: for Ability to dissolve 1,2-octanediol: two-component aqueous alcohol solution with 10% by weight 1,2-octanediol and 10% by weight 1,2-hexanediol, FIG. 1
Protocol: An aqueous solution containing 10% by weight of 1,2-octanediol was prepared using 1,2-octanediol as a poorly water-soluble alkane diol.
Five alcohol solvents, 1,6-hexanediol (hereinafter referred to as 1,6-HED), 3-methyl-1,5-pentanediol (hereinafter referred to as 3 MPED), 1,5-pentanediol (hereinafter referred to as 1,5-PED), 1,2-hexanediol (hereinafter referred to as HED), and 2,2′-dimethylpropanediol (hereinafter referred to as 2 MPRD) were added to 10 g of the aqueous solution until the aqueous solution became transparent.
In place of the aqueous solution described above, an aqueous solution that contains 10% by weight of 1,2-octanediol as the poorly water-soluble alkane diol and 10% by weight of 1,2-hexanediol as the water-soluble 1,2-alkane diol was prepared, and the alcohol solvents were added to the aqueous solution until the aqueous solution became transparent, as described above.

SMILES | surface tension ([1]; 15% aqueous solution) | Ability to dissolve 1,2-octanediol [2] | other results
CCCCC(O)CO (stereo not shown) [1,2-hexanediol] | 26.7 mN/m | – | –
CCCCCCC(O)CO (stereo not shown) [1,2-octanediol] | – | – | Solubility of 1,2-octanediol in water ([2]; aqueous solution containing 10% by weight of 1,2-octanediol): incompletely dissolved
OCCCCCO [1,5-PED, 1,5-pentanediol] | – | higher ability to dissolve 1,2-octanediol than the addition of HED alone | –
OCCCCCCO [1,6-HED, 1,6-hexanediol] | – | higher ability to dissolve 1,2-octanediol than the addition of HED alone | –
CC(C)(CO)CO [2 MPRD, 2,2′-dimethylpropanediol] | – | higher ability to dissolve 1,2-octanediol than the addition of HED alone | –
CC(CO)CO [2-methyl-1,3-propanediol] | – | – | surface tension ([1]; 10% aqueous solution): 57.5 mN/m
CC(CCO)CCO [3 MPED, 3-methyl-1,5-pentanediol] | – | higher ability to dissolve 1,2-octanediol than the addition of HED alone | –
CC(C)(C)C(O)CO (stereo not shown) [3,3-dimethyl-1,2-butanediol] | 26.1 mN/m | – | –
CC(CCO)CCO [3-methyl-1,5-butanediol] | – | – | surface tension ([1]; 10% aqueous solution): 45.8 mN/m
CC(C)CC(O)CO (stereo not shown) [4-methyl 1,2-pentanediol] | 25.4 mN/m | – | –
